Assay results from publication PMC13672995, “NCR13 peptide protects soybean against Cercospora sojina using multi-faceted modes of action and additive interaction with chemical fungicides” (Journal of Experimental Botany, 2025).
≈ marks a conversion by molar mass, not a printed value. Read-outs that look alike come from different tables or passages of the source. Where a SMILES comes first, the peptide text is derived from it.

Legend:
[1] = test system: C. sojina QoI fungicide-resistant isolate Cs350; assay type: cell-based, Cercospora sojina; conditions: for MIC (μM) against C. sojina, Fungicide resistant, Cs350: 48 h; for fold increase of MIC with increasing iron concentration: FeSO4 in SFM
Description: (§1) In vitro antifungal activity of AFPs and QoI fungicides was determined using 96-well plate assays as described ([Velivelli et al., 2020]) with slight modifications. Briefly, 2- to 3-week-old C. sojina was used to make a conidial suspension in 2× SFM at the final concentration of ∼10^5 conidia ml^−1. Simultaneously, peptide dilutions (in water) at various concentrations were made. Fungicides were dissolved in 50% acetone and 50% water to make a stock solution of 500 µM, and serial dilutions were made in water as needed. The peptide–conidia or the fungicide–conidia mixture at the ratio of 1:1 (45 µl:45 µl) was added in a 96-well plate and incubated at room temperature for 48 h, after which MICs of the peptides/fungicides were calculated based on microscopy as well as the resazurin cell viability assay ([Velivelli et al., 2020]).

[2] = test system: C. sojina Cs350 (fungicide resistant); assay: Peptide-fungicide checkerboard assay; assay type: cell-based, Cercospora sojina; conditions: for MIC: Cercospora sojina, SHAM 60 µg ml–1, microscopy, read-out: Individual MIC; for MIC / interaction with NCR13_PFV1 by FIC index: 96 h; for MIC / FIC score: Cs350, 4 d; for interaction with NCR13_PFV1 by FIC index: Cs350, in vitro
Description: Synergy between NCR13_PFV1 and the widely used QoI foliar fungicides, azoxystrobin (Sigma-Aldrich, Cat No: 31697), trifloxystrobin (Sigma-Aldrich, Cat No: 46447), and pyraclostrobin (Sigma-Aldrich, Cat No: 33696), were evaluated using checkerboard assays. This assay was performed in a 96-well plate and the preparation of conidial suspension, peptide dilutions, and fungicide dilutions were similar to the in vitro antifungal activity assay described above. The presence of an alternative respiration pathway allows some fungi including C. sojina to germinate even in the presence of a high dose of QoI fungicides in vitro ([Ziogas et al., 1997]; [Zhang et al., 2012]). Therefore, to prevent alternative respiration in C. sojina, salicylhydroxamic acid (SHAM) was added in each reaction at the final concentration of 60 µg ml^–1 ([Zhang et al., 2012]). The conidia, peptide, fungicide, and SHAM were added in a 96-well plate at the v/v ratio of 4:1:1:2 (50 µl:12.5 µl:12.5 µl:25 µl) in the final reaction volume of 100 µl, and the plate was incubated at room temperature for 96 h (4 d). After 96 h, MIC values of the peptide–fungicide combination, peptide alone, and fungicide alone were calculated based on microscopy as well as the resazurin cell viability assay. The fractional inhibitory concentration (FIC) index was calculated using the formula FIC = (MICA+B/MICA) + (MICB+A/MICB), where MICA and MICB are the MIC for peptide (A) alone and fungicide (B) alone, respectively, MICA+B is the MIC for peptide in combination with fungicide (A+B), and MICB+A is the MIC for fungicide in combination with peptide (B+A). The FIC index was interpreted as: synergistic, ≤0.5; additive, >0.5–1.0; indifferent, >1 to <4.0; or antagonistic, ≥4.0.

[3] = test system: C. sojina QoI fungicide-sensitive isolate Cs320; assay: microbe, parasite or virus in culture; assay type: cell-based, Cercospora sojina; conditions: for MIC: Cercospora sojina, read-out: MIC (µM) against Fungicide sensitive C. sojina isolate (Cs320); for MIC / MIC (μM) against C. sojina isolates, Fungicide sensitive, Cs320: 48 h; for MIC (µM) against Fungicide sensitive C. sojina isolate (Cs320): QoI fungicides, determined in 2 days, 0.02 µM lowest concentration tested
Description: as §1

[4] = Peroxidase assay (TMB substrate); assay type: biochemical; conditions: heme 5 µM, peptide 5 µM, absorption at 370 nm and 652 nm
Description: A Pierce TMB substrate kit (Thermo Scientific) was used to measure the peroxidase activity of heme. In a transparent 96-well plate, 50 µl of TMB substrate and 50 µl of […] were added followed by addition of heme (5 µM) or peptides plus heme (5 µM each). The reaction progression was measured in the Tecan plate reader, by recording UV-vis absorption values at 370 nm and 652 nm for every minute up to 1 h.

[5] = Heme-peptide binding assay (colour change); conditions: equimolar heme and peptide, 100 µM, 1 h, room temperature
Description: Heme solutions were freshly prepared by dissolving hemin chloride (Sigma Cat No: 3741) in 0.1 M NaOH and used within an hour after preparation. Two heme-sequestering peptides, NCR247 and NCR455 ([Montiel et al., 2017]; [Sankari et al., 2022]), were used as positive controls, and water-only treatment as a negative control. The equimolar concentration of heme and peptide (100 µM) or water were mixed and incubated at room temperature for 1 h. When dissolved in NaOH, heme is light to dark brown in color; however, when it binds to a peptide, the color changes to reddish-brown as described by [Sankari et al. (2022)]. The change in color of heme to reddish-brown indicated the heme binding ability of the peptide.

[6] = pair pyraclostrobin / NCR13_PFV1

Compound: C[C@H](NC(=O)CN)C(=O)N[C@@H](CS)C(=O)N[C@@H](Cc1c[nH]cn1)C(=O)N[C@@H](CCCNC(=N)N)C(=O)N[C@@H](CCC(N)=O)C(=O)NCC(=O)N[C@@H](Cc1ccccc1)C(=O)NCC(=O)N[C@@H](Cc1ccccc1)C(=O)N[C@@H](C)C(=O)N[C@@H](Cc1ccccc1)C(=O)N[C@@H](Cc1ccccc1)C(=O)N[C@@H](Cc1ccccc1)C(=O)N[C@@H](Cc1ccc(O)cc1)C(=O)N[C@@H](CCCCN)C(=O)N[C@@H](CCCCN)C(=O)N[C@@H](CS)C(=O)O [GMA5AC_V2] (H-GACHRQGFGFAFFFYKKC-OH; N-terminus and C-terminus assumed)
- MIC (μM) against C. sojina, Fungicide resistant, Cs350 [1]: 6 µM (≈ 12.7 µg/mL)

Compound: CC(C)C[C@H](NC(=O)[C@H](CS)NC(=O)[C@H](C)NC(=O)CN)C(=O)N[C@@H](CCCCN)C(=O)N[C@@H](CC(N)=O)C(=O)N[C@@H](CCCNC(=N)N)C(=O)N[C@@H](Cc1c[nH]cn1)C(=O)N[C@@H](CO)C(=O)N[C@@H](CCCCN)C(=O)N[C@@H](Cc1c[nH]cn1)C(=O)N[C@@H](Cc1ccc(O)cc1)C(=O)NCC(=O)N[C@@H](Cc1c[nH]c2ccccc12)C(=O)N[C@@H](Cc1ccccc1)C(=O)N[C@@H](Cc1c[nH]c2ccccc12)C(=O)N[C@@H](Cc1ccc(O)cc1)C(=O)N[C@@H](Cc1ccc(O)cc1)C(=O)N[C@@H](CCCNC(=N)N)C(=O)N[C@@H](Cc1c[nH]cn1)C(=O)N[C@@H](CS)C(=O)N[C@@H](Cc1ccc(O)cc1)C(=O)O [GMAOe1C_V1] (H-GACLKNRHSKHYGWFWYYRHCY-OH; N-terminus and C-terminus assumed)
- MIC (μM) against C. sojina, Fungicide resistant, Cs350 [1]: 3 to 6 µM

Compound: COC(=O)N(OC)c1ccccc1COc1ccn(-c2ccc(Cl)cc2)n1 [Pyraclostrobin, pyraclostrobin]
- MIC [2, 6]: 24 µM
- interaction with NCR13_PFV1 by FIC index [2]: additive (additive, >0.5–1.0)
- FIC score [2, 6]: ≤ 1
- MIC [3]: < 0.02 µM
- MIC (µM) against Fungicide sensitive C. sojina isolate (Cs320) [3]: <0.02 µM

Compound: RNGCIVDPRCPYQQCRRPLYCRRR [NCR247, reference compound]
- peroxidase activity of heme and FeSO4 in the presence of peptide [4]: reduced or stopped
- heme binding (colour change of heme from brown to reddish-brown) [5]: visible color change of heme from brown to reddish-brown

Compound: CC[C@H](C)[C@H](NC(=O)[C@H](CCCNC(=N)N)NC(=O)[C@@H](NC(=O)[C@H](Cc1ccccc1)NC(=O)[C@H](Cc1c[nH]c2ccccc12)NC(=O)[C@H](Cc1ccccc1)NC(=O)[C@H](CCCNC(=N)N)NC(=O)[C@H](CCCNC(=N)N)NC(=O)[C@H](CC(C)C)NC(=O)[C@H](Cc1ccccc1)NC(=O)CNC(=O)[C@H](CCCCN)NC(=O)[C@H](CS)NC(=O)[C@H](CCCNC(=N)N)NC(=O)CNC(=O)CN)[C@@H](C)O)C(=O)N[C@@H](CS)C(=O)O [GMA4CG_V7] (H-GGRCKGFLRRFWFTRIC-OH)
- MIC (μM) against C. sojina, Fungicide resistant, Cs350 [1]: 6 µM (≈ 12.6 µg/mL)

Compound: CC[C@H](C)[C@H](NC(=O)[C@H](CCCNC(=N)N)NC(=O)[C@@H](NC(=O)[C@H](Cc1c[nH]c2ccccc12)NC(=O)[C@H](Cc1ccc(O)cc1)NC(=O)[C@H](Cc1c[nH]c2ccccc12)NC(=O)[C@H](CCCNC(=N)N)NC(=O)[C@H](CCCNC(=N)N)NC(=O)[C@H](CC(C)C)NC(=O)[C@H](Cc1ccccc1)NC(=O)CNC(=O)[C@H](CCCCN)NC(=O)[C@H](CS)NC(=O)[C@H](CCCNC(=N)N)NC(=O)CNC(=O)CN)[C@@H](C)O)C(=O)N[C@@H](CS)C(=O)O [GMA4CG_V8] (H-GGRCKGFLRRWYWTRIC-OH)
- MIC (μM) against C. sojina, Fungicide resistant, Cs350 [1]: 6 µM (≈ 13 µg/mL)

Compound: N=C(N)NCCC[C@H](NC(=O)[C@H](CS)NC(=O)[C@H](Cc1c[nH]c2ccccc12)NC(=O)[C@H](Cc1ccccc1)NC(=O)[C@H](CCCCN)NC(=O)[C@@H](N)CCCCN)C(=O)N[C@@H](CCCCN)C(=O)N1CCC[C@H]1C(=O)N[C@@H](CCCCN)C(=O)N[C@@H](Cc1c[nH]c2ccccc12)C(=O)N1CCC[C@H]1C(=O)N[C@@H](CCCCN)C(=O)N[C@@H](CS)C(=O)O [NCR13_V9] (H-KKFWCRKPKWPKC-OH; N-terminus and C-terminus assumed)
- MIC (μM) against C. sojina, Fungicide resistant, Cs350 [1]: 6 µM (≈ 10.4 µg/mL)
- fold increase of MIC with increasing iron concentration [1]: 2 fold
- MIC (μM) against C. sojina isolates, Fungicide sensitive, Cs320 [3]: 3 µM (≈ 5.21 µg/mL)

Compound: C[C@H](NC(=O)CN)C(=O)N[C@@H](CS)C(=O)N[C@@H](Cc1c[nH]cn1)C(=O)N[C@@H](CCCNC(=N)N)C(=O)N[C@@H](CCC(N)=O)C(=O)NCC(=O)N[C@@H](Cc1ccccc1)C(=O)NCC(=O)N[C@@H](Cc1ccccc1)C(=O)N[C@@H](C)C(=O)N[C@@H](Cc1c[nH]c2ccccc12)C(=O)N[C@@H](Cc1ccccc1)C(=O)N[C@@H](Cc1c[nH]c2ccccc12)C(=O)N[C@@H](Cc1ccc(O)cc1)C(=O)N[C@@H](CCCCN)C(=O)N[C@@H](CCCCN)C(=O)N[C@@H](CS)C(=O)O [GMA5AC_V1] (H-GACHRQGFGFAWFWYKKC-OH; N-terminus and C-terminus assumed)
- MIC (μM) against C. sojina, Fungicide resistant, Cs350 [1]: 6 µM (≈ 13.2 µg/mL)

Compound: CON=C(C(=O)OC)c1ccccc1CON=C(C)c1cccc(C(F)(F)F)c1 [Trifloxystrobin, trifloxystrobin]
- MIC ([2]; pair trifloxystrobin / NCR13_PFV1, highest fungicide concentration 48 µM): > 48 µM
- interaction with NCR13_PFV1 by FIC index [2]: additive (additive, >0.5–1.0)
- FIC score ([2]; pair trifloxystrobin / NCR13_PFV1): ≤ 1
- MIC [3]: < 0.02 µM
- MIC (µM) against Fungicide sensitive C. sojina isolate (Cs320) [3]: <0.02 µM

Compound: CC(C)[C@H](NC(=O)[C@H](CCCCN)NC(=O)[C@@H]1CCCN1C(=O)[C@H](CCCCN)NC(=O)[C@H](CCCNC(=N)N)NC(=O)[C@H](CS)NC(=O)[C@H](C)NC(=O)[C@H](Cc1ccccc1)NC(=O)[C@H](CCCCN)NC(=O)[C@@H](N)CCCCN)C(=O)N1CCC[C@H]1C(=O)N[C@@H](CCCCN)C(=O)N[C@@H](CS)C(=O)O [NCR13_V7] (H-KKFACRKPKVPKC-OH; N-terminus and C-terminus assumed)
- MIC (μM) against C. sojina, Fungicide resistant, Cs350 [1]: 12 µM (≈ 18.4 µg/mL)
- fold increase of MIC with increasing iron concentration [1]: 2 fold
- MIC (μM) against C. sojina isolates, Fungicide sensitive, Cs320 [3]: 6 µM (≈ 9.2 µg/mL)

Compound: CC[C@H](C)[C@H](NC(=O)[C@H](CCCNC(=N)N)NC(=O)[C@H](CS)NC(=O)[C@H](CCCNC(=N)N)NC(=O)CNC(=O)[C@@H](N)CO)C(=O)N[C@@H](CC(C)C)C(=O)N[C@@H](Cc1ccccc1)C(=O)N[C@@H](CCCNC(=N)N)C(=O)N[C@@H](Cc1c[nH]c2ccccc12)C(=O)N[C@@H](Cc1ccc(O)cc1)C(=O)N[C@@H](Cc1ccccc1)C(=O)N[C@H](C(=O)N[C@@H](CCCCN)C(=O)N[C@@H](CC(N)=O)C(=O)N[C@@H](CS)C(=O)O)[C@@H](C)O [GMA1C_V3] (H-SGRCRILFRWYFTKNC-OH)
- MIC (μM) against C. sojina, Fungicide resistant, Cs350 [1]: 6 µM (≈ 12.3 µg/mL)

Compound: CC[C@H](C)[C@H](NC(=O)[C@H](CCCNC(=N)N)NC(=O)[C@H](CS)NC(=O)[C@H](CCCNC(=N)N)NC(=O)CNC(=O)[C@@H](N)CO)C(=O)N[C@@H](CC(C)C)C(=O)N[C@@H](Cc1ccccc1)C(=O)N[C@@H](CCCNC(=N)N)C(=O)N[C@@H](Cc1c[nH]c2ccccc12)C(=O)N[C@@H](Cc1ccccc1)C(=O)N[C@@H](Cc1c[nH]c2ccccc12)C(=O)N[C@H](C(=O)N[C@@H](CCCCN)C(=O)N[C@@H](CC(N)=O)C(=O)N[C@@H](CS)C(=O)O)[C@@H](C)O [GMA1C_V2] (H-SGRCRILFRWFWTKNC-OH)
- MIC (μM) against C. sojina, Fungicide resistant, Cs350 [1]: 6 µM (≈ 12.4 µg/mL)
